Patent US20120157471A1, “BENZIMIDAZOLE DERIVATIVES” (PFIZER INC., priority 2009, published 2012)
pIC50: −log10 of the molar value.

How the values were obtained:
Gli-Luc/MEF cells (Smo) = assay: Gli-Luc/MEF assay (Shh-stimulated luciferase reporter under the Gli response element); type: cell-based, mouse; details: Mus musculus, MEF, 48 h
Method in brief: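 IC50 derived from luminescence (Bright-Glo) after 48 h at 37° C, 5% CO2, with compound at […] (3-fold dilutions) added together with mouse Shh at 2 μg/mL final. Cells: MEFs from Gli-Luc transgenic mice.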

[1] = molecular target: T1, human Smo (amino acids 181-787) (Homo sapiens, UniProt Q99835); assay: Smo radioligand competition binding assay (displacement of 3H-PF-03451358 from HEK293 membranes); details: for inhibition at 0.05 µM: 0.05 μM test compound, displacement of 3H-PF-03451358, read-out: SMO % inh. @ 0.05 μM; for pIC50: radioligand competition binding
T1 construct: expressed in transfected cells; membrane preparation
Method in brief: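 Displacement of 3 nM tritiated PF-03451358 measured by filtration and scintillation counting after 2 h at room temperature, using 40 μg/well HEK293 membranes bearing cell-surface Smo 181-787, pH 7.5 buffer. Specific binding defined against 30 μM unlabelled ligand; IC50 via variable-slope sigmoidal fit.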

T1 sequence (Q99835 181-787): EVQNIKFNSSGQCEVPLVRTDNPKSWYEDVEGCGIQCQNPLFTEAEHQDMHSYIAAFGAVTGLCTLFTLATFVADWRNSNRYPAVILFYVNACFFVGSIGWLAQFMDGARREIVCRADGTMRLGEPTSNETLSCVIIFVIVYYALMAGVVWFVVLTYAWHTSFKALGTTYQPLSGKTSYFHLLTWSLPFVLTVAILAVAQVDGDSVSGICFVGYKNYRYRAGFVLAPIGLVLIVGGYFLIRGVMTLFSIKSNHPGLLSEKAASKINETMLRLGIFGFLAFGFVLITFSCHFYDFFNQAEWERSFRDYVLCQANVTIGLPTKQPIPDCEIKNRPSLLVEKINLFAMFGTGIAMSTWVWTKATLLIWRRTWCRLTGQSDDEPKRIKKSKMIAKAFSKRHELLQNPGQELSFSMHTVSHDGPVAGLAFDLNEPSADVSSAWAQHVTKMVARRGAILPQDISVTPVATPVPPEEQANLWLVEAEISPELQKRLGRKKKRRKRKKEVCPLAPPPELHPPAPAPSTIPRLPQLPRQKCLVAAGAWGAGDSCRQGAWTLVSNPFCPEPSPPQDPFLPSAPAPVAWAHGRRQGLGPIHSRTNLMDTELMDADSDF

SMILES	pIC50 (Gli-Luc/MEF cells (Smo))	inhibition at 0.05 µM [1] [%]	pIC50 [1]
CN(CCO)c1cc(-c2nc3ccccc3n2C)c(Cl)cn1 [Example A-164, 2-{[5-chloro-4-(1-methyl-1H-benzimidazol-2-yl)pyridin-2-yl](methyl)amino}ethanol]	7.85	97	7.82
CC(=O)N1CCN(c2cc(-c3nc4ccccc4n3C)c(Cl)cn2)C[C@@H]1C [Example A-162, 2-{2-[(3S)-4-acetyl-3-methylpiperazin-1-yl]-5-chloropyridin-4-yl}-1-methyl-1H-benzimidazole]	8.30	91	8.15
Cn1c(-c2cc(N3CC[C@H](O)C3)ncc2Cl)nc2ccccc21 [Example A-28, (3S)-1-[5-chloro-4-(1-methyl-1H-benzimidazol-2-yl)pyridin-2-yl]pyrrolidin-3-ol]	7.28	82	7.10
Cn1ccnc1C(O)C1CCN(c2cc(-c3nc4ccccc4n3C)c(Cl)cn2)CC1 (stereo not drawn) [Example A-73, {1-[5-chloro-4-(1-methyl-1H-benzimidazol-2-yl)pyridin-2-yl]piperidin-4-yl}(1-methyl-1H-imidazol-2-yl)methanol]	7.60	93	7.35
CN(C1CCN(c2cc(-c3nc4ccccc4n3C)c(Cl)cn2)C1)S(C)(=O)=O (stereo not drawn) [Example A-181, N-{1-[5-chloro-4-(1-methyl-1H-benzimidazol-2-yl)pyridin-2-yl]pyrrolidin-3-yl}-N-methylmethanesulfonamide]	8.05	98	7.96
COC(=O)N1CCN(c2ncc(Cl)c(-c3nc4ccccc4n3C)n2)CC1 [Example C-5, Methyl 4-[5-chloro-4-(1-methyl-1H-benzimidazol-2-yl)pyrimidin-2-yl]piperazine-1-carboxylate]	8.05	96	7.85
CC1C(=O)NCCN1c1cc(-c2nc3ccccc3n2C)c(Cl)cn1 (stereo not drawn) [Example A-171, 4-[5-chloro-4-(1-methyl-1H-benzimidazol-2-yl)pyridin-2-yl]-3-methylpiperazin-2-one]	7.55	97	7.51
